System: BTECs
Test: Mitochondrial ATP levels in BTECs
Assay type: cell-based, human
Conditions: FLVCR1a-silenced vs scramble shRNA BTECs
Excerpt: Results were expressed as nmol NAD*/min/mg mitochondrial protein for complex I, nmol reduced cytochrome c/min/mg mitochondrial protein for complexes II-III, nmol oxidized cytochrome c/min/mg mitochondrial protein for complex IV. Data represent mean±SEM, n=3. For statistical analyses, an unpaired Student's t-test was used; *=p<0.05, **=p<0.01, *=p<0.001. […] Results are expressed as nmol/mg mitochondrial proteins. Data represent mean±SEM, n=3. For statistical analyses, an unpaired Student's t-test was used; *=p<0.05. […] Results are expressed as pmol CO2/h/mg protein. Data represent mean±SEM, n=3. For statistical analyses, an unpaired Student's t-test was used; **=p<0.01. […] Results were expressed as nmol NAD*/min/mg mitochondrial protein for complex I, nmol reduced cytochrome c/min/mg mitochondrial protein for complexes II-III, nmol oxidized cytochrome c/min/mg mitochondrial protein for complex IV. […] Results are expressed as nmol/mg mitochondrial proteins. […] Results are expressed as pmol CO2/h/mg protein. […] (H) TCA cycle enzymes activities are reported in boxes and expressed as mU/mg mitochondrial proteins. […] Results were expressed as nmol NAD^+/min/mg mitochondrial protein for complex I, nmol reduced cytochrome c/min/mg mitochondrial protein for complexes II-III, nmol oxidized cytochrome c/min/mg mitochondrial protein for complex IV. […] Results are expressed as nmol/mg mitochondrial proteins. […]

For “FLVCR1a shRNA: shRNA specifically down-regulating FLVCR1a without targeting FLVCR1b; pLKO.1 lentiviral clone TRCN0000059599, antisense SEQ ID No.: 2 (antisense TTGCTAATGATGCTGTACTGG; sense CCAGTACAGCATCATTAGCAA)”, the “mitochondrial ATP levels” value was “increased mitochondrial ATP levels”.
